Measurements: ChEMBL document CHEMBL1667845, “LC-MS and NMR characterization of the purple chromophore formed in the o-aminobenzaldehyde assay of dihydrodipicolinate synthase” (Bioorg Med Chem, 2011)
Active and inactive are the calls of the source.

What was measured:
Escherichia coli [1] = assay: Binding affinity to Escherichia coli DHDPS assessed as formation of purple chromophore after 10 to 40 mins by o-aminobenzaldehyde assay
Escherichia coli [2] = assay: Binding affinity to Escherichia coli DHDPS assessed as formation of purple chromophore after 30 to 60 mins by o-aminobenzaldehyde assay using UV-vis spectrophotometric analysis using LC-MS analysis
Escherichia coli [3] = assay: Binding affinity to Escherichia coli DHDPS assessed as formation of purple chromophore after 70 mins by o-aminobenzaldehyde assay using UV-vis spectrophotometric analysis using UV-vis spectrophotometric analysis

Measured: Activity

O=C(O)C1=N[C@H](C(=O)O)C[C@H](O)C1
active: all assays above
